Data: patent US20160075689A1, “POLYMERASE, ENDONUCLEASE, AND HELICASE INHIBITORS AND METHODS OF USING THEREOF” (THE BOARD OF TRUSTEES OF THE UNIVERSITY OF ARKANSAS, priority 2013, published 2016)
Where “and” joins values, the source holds several entries; their conditions need not be identical. Identical values can stand only once.

Key:
[1] = target: T1, hpol η (Homo sapiens, UniProt Q9Y253); experiment: Fluorescence-based DNA polymerase strand-displacement assay; type: biochemical
T1 construct: human DNA polymerases η (amino acids 1-437); 6x-histidine (N, cleaved yes); GST (N, cleaved yes); made in house; host or cells: Escherichia coli BL21 (DE3)
T1 sequence (Q9Y253 1-437): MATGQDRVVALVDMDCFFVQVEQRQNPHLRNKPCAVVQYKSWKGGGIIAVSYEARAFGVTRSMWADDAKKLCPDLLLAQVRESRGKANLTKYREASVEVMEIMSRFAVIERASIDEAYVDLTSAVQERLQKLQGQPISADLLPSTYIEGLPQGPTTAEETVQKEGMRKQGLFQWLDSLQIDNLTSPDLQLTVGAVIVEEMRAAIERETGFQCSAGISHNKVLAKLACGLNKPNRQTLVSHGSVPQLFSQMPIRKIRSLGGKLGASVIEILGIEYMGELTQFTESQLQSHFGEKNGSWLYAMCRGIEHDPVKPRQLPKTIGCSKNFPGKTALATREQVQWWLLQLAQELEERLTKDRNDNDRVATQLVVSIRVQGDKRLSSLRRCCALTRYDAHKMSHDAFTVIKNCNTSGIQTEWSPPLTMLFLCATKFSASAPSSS
Excerpt: A library of 320 compounds targeted against nucleic acid interacting proteins was screened for inhibition of polymerase activity using an assay that monitors fluorescence from a 5-carboxytetramethylrhodamine (TAMRA) labeled oligonucleotide. In order to prepare the DNA for the experiment, a TAMRA-labeled reporter (or displaced) strand (SEQ ID NO. 4: 5′-TTT TTT TTG C-TAMRA-3′) and unlabeled primer strand (SEQ ID NO. 5: 5′-TCA CCC TCGTAC GAC TCT T-3′) were annealed to a Black Hole Quencher (BHQ)-labeled template strand (SEQ ID NO. 6: 5′BHQ2-GCAAAAAAAAAA GAG TCG TAC GAG GGT GA-3′) in a solution containing 10 mM Tris (pH 8.0), 50 mM NaCl, 2 mM MgCl2, and dH2O. The template (T), primer (P) and displaced strand (D) oligonucleotides were mixed in a 1:1.5:1.5 (T:P:D) molar ratio for annealing. After an incubation period of three minutes at 95° C., the DNA was allowed to slowly cool to room temperature overnight.
The fluorescence-based assay used to screen for polymerase inhibitors measures polymerase-catalyzed displacement of a TAMRA-labeled oligonucleotide (FIG. 1). For the initial screen, the experimental setup included 50 nM hpol η), 50 nM DNA, 6 μM compound, 100 μM dTTP and 1 mM MgCl2. The reactions were performed in 50 mM Tris (pH 8.0) buffer containing 40 mM NaCl, 2 mM dithiothreitol, and 0.01% (v/v) Tween-20. The concentration of dimethyl sulfoxide (DMSO) was 3.5% (v/v) for the initial screen. The enzyme, the compounds (including a DMSO control) and dTTP were combined with the reaction buffer in individual wells of each half-plate and allowed to incubate for 5-10 minutes. The DNA substrate was subsequently added to initiate the reaction and the plate was read immediately using a BioTek SynergyH4 plate reader (λex=525 nm, λem=598 run). The final reaction volume was 200 μL. Fluorescence was monitored for 90 minutes for most reactions. The initial portion of the velocity curve was analyzed by linear regression to calculate an observed rate of product formation. For each data set, eight DMSO control experiments were averaged to obtain our measure of 100% activity. Rates of product formation in the presence of each compound were then divided by the rate of the DMSO control to produce a relative measure of polymerase activity (0 to 1, with 1 being no inhibition).
In order to determine the IC50 value for each enzyme, the fluorescence-based polymerase assay was repeated with increasing concentrations of inhibitor. The conditions varied slightly for each enzyme. With the exception of hpol ι, all IC50 experiments were performed in 50 mM Tris HCl (pH 8.0) buffer containing 1 mM MgCl2, 0.1 mM dTTP, 40 mM NaCl, 2 mM DTT, 0.01% (v/v) Tween-20 and 10% (v/v) DMSO. For experiments with hpol ι, KCl was substituted for NaCl and 0.25 mM MnCl2 was substituted for MgCl2. The concentration of inhibitor was 0, 1, 5, 10, 20, 30, 50, 75 and 100 μM. The enzyme and DNA concentrations were as follows: 10 nM hpol η, 50 nM DNA; 3 nM hpol κ, 60 nM DNA; 50 nM hpol ι, 50 nM DNA; 10 nM Dpo4, 50 nM DNA; 100 nM Dpo1, 50 nM DNA; 50 nM hpol β, 50 nM DNA; 50 nM HIV-1 RT, 50 nM DNA. The percent activity was plotted as a function of the log of inhibitor concentration and fit to a four-parameter logistic model (equation 1) using Prism software (Graph Pad, San Diego, Calif.): […]

[2] = target: T2, NS3 helicase (Hepatitis C virus genotype 1b, UniProt P26663); experiment: Gel-based helicase assay; type: biochemical, HCV; conditions: standard helicase assay
T2 construct: analyze the helicase activity of NS3 helicase in the presence of the compounds; made in house
Method: Benchtop unwinding assays were performed to analyze the helicase activity of NS3 helicase in the presence of the compounds. The unwinding reaction was initiated by mixing the right (N53, compound, assay buffer) and left (radiolabeled substrate, ATP, assay buffer) reactions, which was then quenched. The ssDNA product formed over time is separated from dsDNA substrate by 20% native PAGE. The ratio of dsDNA substrate to ssDNA product is quantified using ImageQuant and the fraction of substrate unwound at each time-point is plotted as a function of time using Kaleidagraph software.

[3] = target: NS3-4A (Hepatitis C virus genotype 1b, UniProt P26663); experiment: NS3 protease activity assay; type: biochemical, HCV; conditions: 25 μM compound, 50 nM NS3-4A, 100 nM substrate
Method: The protease activity of NS3 was analyzed in the presence of 25 μM ITBA-3-79, ITBA-3-82 or ITBA-3-85 by using 50 nM NS3-4A and 100 nM substrate (Ac-Asp-Glu-Asp-EDANS-Glu-Glu-Abu-L-Lactoyl-Ser-Lys DABCYL-NH2). The emission spectra of EDANS and the absorption spectra of DABCYL overlap making the peptide internally quenched. Cleaving of the substrate by the protease results in an increase in fluorescence that can be measured (λex−355 nm; λem, −500 nm). Telapravir (10 μM) was used as a positive control.

[4] = target: T3, HCV NS3 helicase (Hepatitis C virus genotype 1b, UniProt P26663); experiment: Fluorescence-based helicase assay; type: biochemical; conditions: IC50 for inhibition of NS3 helicase, mean ± standard deviation of three data sets
T3 construct: analyze the helicase activity of NS3 helicase in the presence of the compounds; made in house
Method: A library of compounds was screened using a previously validated quantitative assay that measures helicase activity over time. The assay relies upon helicase-catalyzed displacement of a fluorescently-labeled oligonucleotide (FIG. 13A). The concentration of enzyme and compounds used was 250 nM and 20 μM respectively. The experiments were performed in triplicate. […] Three potential helicase inhibitors were identified using the fluorescence based assay. […] The inhibitor compounds identified in our screen were ITBA-3-79, ITBA-3-82 and ITBA-3-85 (FIG. 14A). […] The IC50 value for ITBA-3-79, ITBA-3-82 and ITBA-3-85-mediated inhibition of NS3 helicase ranged˜20 μM (FIG. 14C). The ATPase activity of NS3 (50 μM) was analyzed in the presence of ITBA-3-79, ITBA-3-82 and ITBA-3-85 using a coupled spectrophotometric assay (Raney and Benkovic 1995, (FIG. 15). The protease activity of NS3 was analyzed in the presence of ITBA-3-79, ITBA-3-82 and ITBA-3-85 by using 50 nM NS3-4A and 100 nM substrate (Ac-Asp-Glu-Asp-EDANS-Glu-Glu-Abu-L-Lactoyl-Ser-Lys DABCYL-NH2, FIG. 15. The NS3 helicase activity was analyzed in the presence of 25 μM ITBA-3-79, ITBA-3-82 and ITBA-3-85 (FIG. 16).
A fluorescence based quantitative assay that measures helicase activity over time was employed to screen the compounds. The concentration of enzyme and compounds used was 250 nM and 20 μM respectively. Helicase catalyzes the unwinding of a FAM-labeled dsDNA and the resulting increase in fluorescence is plotted (λex-485 nm; λem, −528 nm). The slope of the initial part of the plot was used to calculate the percentage helicase activity. […] The IC50 value for ITBA-3-79, ITBA-3-82 and ITBA-3-85-mediated inhibition of NS3 helicase was determined using the same assay.

[5] = target: T4, EndoG (Homo sapiens, UniProt Q14249); experiment: Plasmid incision assay; type: biochemical; conditions: agarose gel, FIG. 9
T4 sequence (Q14249 49-297): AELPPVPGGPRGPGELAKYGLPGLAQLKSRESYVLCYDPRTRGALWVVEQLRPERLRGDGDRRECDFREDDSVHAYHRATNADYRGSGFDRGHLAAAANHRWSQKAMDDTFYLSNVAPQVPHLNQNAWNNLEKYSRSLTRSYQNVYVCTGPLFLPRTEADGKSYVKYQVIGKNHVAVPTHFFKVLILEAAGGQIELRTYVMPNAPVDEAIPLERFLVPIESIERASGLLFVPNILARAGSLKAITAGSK
Method: A reaction mixture was prepared containing 0.5 μg pECFP plasmid DNA, 2 mM CaCl2, 5 mM MgCl2, 10 mM Tris-HCl, pH 7.4, 0.5 mM dithiothreitol. The test compound [50 ng in DMSO (1 μl)] was added. Recombinant EndoG was then added to the final concentration of 200 ng/ml and the reaction was incubated for 1 h at 37° C. The reaction was terminated by adding 2 μl of 10 mM Tris-HCl, pH 7.4, 1% SDS, 25 mM EDTA, 7.2 mM bromophenol blue. The samples were run in 1% agarose gel in Tris-acetate-EDTA buffer (40 mM Tris, 20 mM acetic acid, 1 mM EDTA, pH 8), at 7 V/cm for 35 min, and DNA was stained with ethidium bromide. An EagleEye scanning densitometer (Stratagene, La Jolla, Calif.) was utilized to quantify the relative amount of endonuclease-treated plasmid DNA present in a covalently-closed circular (supercoiled) DNA, open circular DNA, or linear DNA, or in a digested form.

T3 sequence (P26663 1027-1657): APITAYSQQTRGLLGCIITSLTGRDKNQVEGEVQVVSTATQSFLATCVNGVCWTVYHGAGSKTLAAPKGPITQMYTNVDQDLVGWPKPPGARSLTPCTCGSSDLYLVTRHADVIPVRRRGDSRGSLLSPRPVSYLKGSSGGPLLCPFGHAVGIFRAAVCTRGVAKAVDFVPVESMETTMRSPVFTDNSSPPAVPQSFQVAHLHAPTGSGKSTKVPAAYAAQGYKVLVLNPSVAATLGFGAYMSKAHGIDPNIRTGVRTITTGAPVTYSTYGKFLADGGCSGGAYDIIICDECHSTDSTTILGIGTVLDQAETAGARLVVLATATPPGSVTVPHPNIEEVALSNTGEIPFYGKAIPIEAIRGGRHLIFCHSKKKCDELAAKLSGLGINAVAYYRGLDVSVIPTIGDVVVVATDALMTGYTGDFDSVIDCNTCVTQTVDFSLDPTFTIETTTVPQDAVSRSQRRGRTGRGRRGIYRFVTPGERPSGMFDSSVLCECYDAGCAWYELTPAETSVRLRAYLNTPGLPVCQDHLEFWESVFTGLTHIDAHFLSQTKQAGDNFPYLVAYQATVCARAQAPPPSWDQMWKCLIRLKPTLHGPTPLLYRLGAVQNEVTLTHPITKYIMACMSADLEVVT
Sequence of NS3-4A (P26663 1027-1657): as above
Sequence of NS3-4A (P26663 1658-1711): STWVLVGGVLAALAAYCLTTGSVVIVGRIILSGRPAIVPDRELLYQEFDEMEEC
T2 sequence (P26663 1027-1657): as the sequence (P26663 1027-1657) above

Row | SMILES | IC50 [1] | hpol η percent activity relative to the control assay ([1]; 50 μM compound) | NS3 helicase activity, gel electrophoresis [2] | NS3 protease activity [3] | IC50 [4] | protection of supercoiled plasmid DNA from degradation by EndoG [5]
1 | O=C1NC(=S)NC(=O)C1=Cc1cn(C(=O)c2cccc3ccccc23)c2ccc(Cl)cc12 [ITBA-17] | 15.8 ± 3.3 µM | most potent inhibitor | – | – | – | –
2 | O=C1NC(=S)NC(=O)C1=Cc1cn(C(=O)c2ccc3ccccc3c2)c2ccccc12 [ITBA-3-79] | – | – | confirmed the inhibition | do not block protease activity | ~20 µM and 21.6 µM | –
3 | COc1ccc2c(c1)c(C=C1C(=O)NC(=S)NC1=O)cn2C(=O)c1cccc2ccccc12 [ITBA-3-85] | – | – | confirmed the inhibition | do not block protease activity | ~20 µM and 23.5 µM | –
4 | [Cl-].[Cl-].[Zn+2] [ZnCl2, reference compound] | – | – | – | – | – | inhibited
